Structures can show the parent of a compound that is named as a salt.
System: dopamine transporter protein over the norepinephrine transporter protein
Details: ratio of Ki values; cited from earlier work

| Compound | DAT/NET Ki ratio |
| --- | --- |
| COC(=O)C(c1ccccc1)C1CCCCN1 (stereo not shown) [Methylphenidate, methylphenidate] | 0.1 |

System: not given
Details: not given

| Compound | melting point [°C] |
| --- | --- |
| CN1Cc2c(ccc3ccoc23)C(c2ccc(F)cc2)C1 (stereo not shown) (as salt: hydrochloride) | 242 to 257 |
| CN1Cc2c(ccc3ccoc23)C(c2ccccc2)C1 (single isomer, unassigned) | 81 to 83 |
| Cc1ccc(C2CN(C)Cc3c2ccc2ccoc32)cc1 (single isomer, unassigned) (as salt: hydrochloride) | 240 to 246 |
| CN1Cc2c(ccc3ccoc23)C(c2ccccc2)C1 (single isomer, unassigned) (as salt: maleate) | 165 to 168 |
| Cc1ccc(C2CN(C)Cc3c2ccc2ccoc32)cc1 (single isomer, unassigned) (as salt: maleate) | 190 to 191 |
| CN1Cc2c(ccc3ccoc23)C(c2cc(F)cc(F)c2)C1 (stereo not shown) (as salt: hydrochloride) | 233 to 236 |
